Experimental data: patent US20050008896A1, “Luminous organic compound and manufacturing method” (Orient Chemical Ind., Ltd., priority 2003, published 2005)
Where two headings read alike, the source gives them in different places.

How the values were obtained:
[1] = Fluorescence (photoluminescence) intensity in ethanol, fluorescence spectrophotometer RF-5300PC; assay type: physicochemical; conditions: for Fluorescence Intensity / center of Luminous Wave: 25 mg of compound in 100 ml of ethanol; for Relative Value of Fluorescence Intensity, Relative Value (2) (Related to Metal Complex Intermediate 3): metal complex intermediate 3 regarded as 1.00
Description: Fluorescence intensity of each obtained compound was measured in order to evaluate fluorescence property.
A method of the evaluation is as follows. 25 mg of each compound was dissolved in 100 ml of ethanol respectively. The fluorescence intensity, photoluminescence intensity, was measured by a fluorescence spectrophotometer RF-5300PC that is available from Shimadzu Corporation. The measured results of the luminous organic compounds 1 to 9 and 11, the comparative compounds 1 to 3 and the metal complex intermediate 1 to 3 are indicated in Table 3. […] The relative value (2) of the fluorescence intensity indicates the value related to the fluorescence intensity of the metal complex intermediate 3 regarded as 1.00.

[2] = stood at room temperature overnight
Description: A method of measurement of the solubility is as follows. After the prescribed amount of the compound was added to each solvent, it was heated by water bath and irradiated supersonic wave for 1 hour. It was stood at room temperature overnight, and filtrated. Obtained residue was dried. Amount of insoluble residue was weighed, and solubility (w/v %) was determined.

[3] = comparative compound 3 regarded as 1.00

SMILES	Relative Value of Fluorescence Intensity, Relative Value (1) (Related to Comparative Compound 3) [1]	Fluorescence Intensity [1]	center of Luminous Wave [1]	Relative Value of Fluorescence Intensity, Relative Value (2) (Related to Metal Complex Intermediate 3) [1]	Solubility, Ethanol [2] [w/v %]	Solubility, Ethyl Acetate [2]	Solubility, Methyl Ethyl Ketone [2]	Solubility, Toluene [2] [w/v %]	Solubility, Xylene [2] [w/v %]	Relative Value of Fluorescence Intensity, Relative Value (1) (Related to Comparative Compound 3) [1, 3]
C[N+](C)(C)CC[N+](C)(C)C.O=C(C=C([O-])C(F)(F)F)c1ccc2ccccc2c1.O=C(C=C([O-])C(F)(F)F)c1ccc2ccccc2c1.O=C(C=C([O-])C(F)(F)F)c1ccc2ccccc2c1.O=C(C=C([O-])C(F)(F)F)c1ccc2ccccc2c1.O=C(C=C([O-])C(F)(F)F)c1ccc2ccccc2c1.O=C(C=C([O-])C(F)(F)F)c1ccc2ccccc2c1.O=C(C=C([O-])C(F)(F)F)c1ccc2ccccc2c1.O=C(C=C([O-])C(F)(F)F)c1ccc2ccccc2c1.[Eu+3].[Eu+3] [Luminous Organic Compound 1]	1.31	662	(613 nm)	1.34	0.20	over 10.0 w/v %	over 10.0 w/v %	0.52	0.10	
C[N+](C)(C)CCCC[N+](C)(C)C.O=C(C=C([O-])C(F)(F)F)c1ccc2ccccc2c1.O=C(C=C([O-])C(F)(F)F)c1ccc2ccccc2c1.O=C(C=C([O-])C(F)(F)F)c1ccc2ccccc2c1.O=C(C=C([O-])C(F)(F)F)c1ccc2ccccc2c1.O=C(C=C([O-])C(F)(F)F)c1ccc2ccccc2c1.O=C(C=C([O-])C(F)(F)F)c1ccc2ccccc2c1.O=C(C=C([O-])C(F)(F)F)c1ccc2ccccc2c1.O=C(C=C([O-])C(F)(F)F)c1ccc2ccccc2c1.[Eu+3].[Eu+3] [Luminous Organic Compound 2]	1.48	744	(613 nm)	1.50	0.19	1.54 w/v %	over 10.0 w/v %	0.24	0.10	
C[N+](C)(C)CCCCCC[N+](C)(C)C.O=C(C=C([O-])C(F)(F)F)c1ccc2ccccc2c1.O=C(C=C([O-])C(F)(F)F)c1ccc2ccccc2c1.O=C(C=C([O-])C(F)(F)F)c1ccc2ccccc2c1.O=C(C=C([O-])C(F)(F)F)c1ccc2ccccc2c1.O=C(C=C([O-])C(F)(F)F)c1ccc2ccccc2c1.O=C(C=C([O-])C(F)(F)F)c1ccc2ccccc2c1.O=C(C=C([O-])C(F)(F)F)c1ccc2ccccc2c1.O=C(C=C([O-])C(F)(F)F)c1ccc2ccccc2c1.[Eu+3].[Eu+3] [Luminous Organic Compound 3]	1.63	822	(613 nm)	1.66	0.14	9.01 w/v %	over 10.0 w/v %	0.31	0.18	
C[N+](C)(C)c1ccc([N+](C)(C)C)cc1.O=C(C=C([O-])C(F)(F)F)c1ccc2ccccc2c1.O=C(C=C([O-])C(F)(F)F)c1ccc2ccccc2c1.O=C(C=C([O-])C(F)(F)F)c1ccc2ccccc2c1.O=C(C=C([O-])C(F)(F)F)c1ccc2ccccc2c1.O=C(C=C([O-])C(F)(F)F)c1ccc2ccccc2c1.O=C(C=C([O-])C(F)(F)F)c1ccc2ccccc2c1.O=C(C=C([O-])C(F)(F)F)c1ccc2ccccc2c1.O=C(C=C([O-])C(F)(F)F)c1ccc2ccccc2c1.[Eu+3].[Eu+3] [Luminous Organic Compound 4]	1.52	766	(613 nm)	1.55	0.08	over 10.0 w/v %	over 10.0 w/v %	0.23	0.22	
C[N+](C)(C)c1ccc(-c2ccc([N+](C)(C)C)cc2)cc1.O=C(C=C([O-])C(F)(F)F)c1ccc2ccccc2c1.O=C(C=C([O-])C(F)(F)F)c1ccc2ccccc2c1.O=C(C=C([O-])C(F)(F)F)c1ccc2ccccc2c1.O=C(C=C([O-])C(F)(F)F)c1ccc2ccccc2c1.O=C(C=C([O-])C(F)(F)F)c1ccc2ccccc2c1.O=C(C=C([O-])C(F)(F)F)c1ccc2ccccc2c1.O=C(C=C([O-])C(F)(F)F)c1ccc2ccccc2c1.O=C(C=C([O-])C(F)(F)F)c1ccc2ccccc2c1.[Eu+3].[Eu+3] [Luminous Organic Compound 5]	1.28	644		1.30	0.37	3.46 w/v %	over 10.0 w/v %	0.30	0.52	
C[N+](C)(C)CCCC[N+](C)(C)C.O=C(C=C([O-])C(F)(F)F)c1ccc2ccccc2c1.O=C(C=C([O-])C(F)(F)F)c1ccc2ccccc2c1.O=C(C=C([O-])C(F)(F)F)c1ccc2ccccc2c1.O=C(C=C([O-])C(F)(F)F)c1ccc2ccccc2c1.O=C(C=C([O-])C(F)(F)F)c1ccc2ccccc2c1.O=C(C=C([O-])C(F)(F)F)c1ccc2ccccc2c1.O=C(C=C([O-])C(F)(F)F)c1ccc2ccccc2c1.O=C(C=C([O-])C(F)(F)F)c1ccc2ccccc2c1.[Tb+3].[Tb+3] [Luminous Organic Compound 10]					0.062	1.21 w/v %	over 10.0 w/v %	0.43	0.32	
O=C(C=C([O-])C(F)(F)F)c1ccc2ccccc2c1.O=C(C=C([O-])C(F)(F)F)c1ccc2ccccc2c1.O=C(C=C([O-])C(F)(F)F)c1ccc2ccccc2c1.[Eu+3] [Metal Complex Intermediate 1]		665	(613 nm)	1.35						1.32
O=C(C=C([O-])C(F)(F)F)c1cccs1.O=C(C=C([O-])C(F)(F)F)c1cccs1.O=C(C=C([O-])C(F)(F)F)c1cccs1.[Eu+3] [Metal Complex Intermediate 2]		566	(613 nm)	1.15						1.13
O=C(C=C([O-])C(F)(F)F)c1ccccc1.O=C(C=C([O-])C(F)(F)F)c1ccccc1.O=C(C=C([O-])C(F)(F)F)c1ccccc1.[Eu+3] [Metal Complex Intermediate 3]		493	(613 nm)	(1.00)						0.98
